The supplement of paper PMC8633005

Legend:
FM-MEL-2 [1] = details: 72 h
Description: (§1)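 Validation dose-response testing of selected drugs on NRAS-mutant melanoma patient-derived cells, run in 2D culture and in 3D spheroids (ultra-low attachment plates), in triplicate per concentration. Viability was read by CellTiter-Glo after 72 h. EC50 came from Breeze curve fitting, and DSS was calculated from the curve.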

FM-MEL-3 [2] = details: 72 h
Description: as §1

FM-MEL-6 [3] = details: 72 h
Description: as §1

Bowes = assay: drug sensitivity score (DSS) (DSS (unitless, 0-50 scale)); higher = more sensitive (stronger viability inhibition); extreme values may be limits of the assay; details: 72 h; culture: 2D
Method in brief: (§2)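 Melanoma cell lines and patient-derived melanoma cultures at 1000–1500 cells per well were exposed in 2D, in 384-well plates, to a 527-compound oncology library at five concentrations spanning a 10,000-fold range for 72 h at 37 °C. CellTiter-Glo luminescence then measured viability. From dose-response curves fitted in the in-house Breeze software, a drug sensitivity score, a modified area-under-curve measure, was obtained.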

WM165 = assay: as above; details: 72 h; culture: 2D
Method in brief: as §2

FM-MEL-2 [4] = assay: as above; details: 72 h; culture: 2D
Method in brief: as §2

FM-MEL-3 [5] = assay: as above; details: 72 h; culture: 2D
Method in brief: as §2

SK-MEL-2 = assay: as above; details: 72 h; culture: 2D
Method in brief: as §2

SK-MEL-28 = assay: as above; details: 72 h; culture: 2D
Method in brief: as §2

WM852 = assay: as above; details: 72 h; culture: 2D
Method in brief: as §2

FM-MEL-6 [6] = assay: as above; details: 72 h; culture: 2D
Method in brief: as §2

FM-MEL-2 [7] = assay: drug sensitivity score (DSS) (DSS (unitless)); higher = more sensitive; details: 72 h
Description: as §1

FM-MEL-3 [8] = assay: as above; details: 72 h
Description: as §1

FM-MEL-6 [9] = assay: as above; details: 72 h
Description: as §1

SMILES	EC50 (cell viability) (FM-MEL-2 [1]; culture: 2D)	EC50 (cell viability) (FM-MEL-2 [1]; culture: 3D spheroid)	EC50 (cell viability) (FM-MEL-3 [2]; culture: 2D)	EC50 (cell viability) (FM-MEL-3 [2]; culture: 3D spheroid)	EC50 (cell viability) (FM-MEL-6 [3]; culture: 2D)	EC50 (cell viability) (FM-MEL-6 [3]; culture: 3D spheroid)	drug sensitivity score (Bowes)	drug sensitivity score (WM165)	drug sensitivity score (FM-MEL-2 [4])	drug sensitivity score (FM-MEL-3 [5])	drug sensitivity score (SK-MEL-2)	drug sensitivity score (SK-MEL-28)	drug sensitivity score (WM852)	drug sensitivity score (FM-MEL-6 [6])	drug sensitivity score (FM-MEL-2 [7]; culture: 2D)	drug sensitivity score (FM-MEL-2 [7]; culture: 3D spheroid)	drug sensitivity score (FM-MEL-3 [8]; culture: 2D)	drug sensitivity score (FM-MEL-3 [8]; culture: 3D spheroid)	drug sensitivity score (FM-MEL-6 [9]; culture: 2D)	drug sensitivity score (FM-MEL-6 [9]; culture: 3D spheroid)
Cc1cn(-c2cc(NC(=O)c3ccc(C)c(Nc4nccc(-c5cccnc5)n4)c3)cc(C(F)(F)F)c2)cn1 [Nilotinib]	869 nM	270 nM	940 nM	266 nM	> 10000 nM	> 10000 nM	0	0	12.4	8.5	0	0	0.8	2.1	10.9	16.7	9.5	15.1	0	0
COc1ncc(-c2ccc3nccc(-c4ccnnc4)c3c2)cc1NS(=O)(=O)c1ccc(F)cc1F [Omipalisib]	5.5 nM	4 nM	7.3 nM	5.2 nM	5.5 nM	4.4 nM	16.9	15.5	15.3	17.9	9.5	16.3	13.8	14.7	16.9	17.5	24.1	27.3	14.9	19
COc1cccc(OCCCN)c1-c1cc(Nc2cnc(C#N)cn2)n[nH]1 [Prexasertib]	851 nM	2030 nM	52 nM	48.7 nM	137 nM	6570 nM	28.6	24.1	10.5	19.1	28.7	8.6	27.7	26.6	7.7	4.9	21.1	25.6	6.4	0.8
CC(C)(C)c1cc(NC(=O)Nc2ccc(-c3cn4c(n3)sc3cc(OCCN5CCOCC5)ccc34)cc2)no1 [Quizartinib]	95.7 nM	45.3 nM	> 1000 nM	> 1000 nM	> 1000 nM	> 1000 nM	1.2	1	10.5	5.1	0	0	0.3	0	10.5	14.5	0	0	0	0
COc1cc(OC)c(/C=C/S(=O)(=O)Cc2ccc(OC)c(NCC(=O)O)c2)c(OC)c1 [Rigosertib]	44.2 nM	110 nM	42 nM	39.2 nM	56.2 nM	1540 nM	19.9	21.4	7.6	15.5	17	9.5	22.6	18.6	10.8	10.5	13.2	16.9	8.6	1.3
Cn1cnc2c(F)c(Nc3ccc(Br)cc3Cl)c(C(=O)NOCCO)cc21 [Selumetinib]	75.6 nM	71 nM	78.9 nM	56.4 nM	83.6 nM	56.1 nM	0	17.3	16.5	24.9	13.2	18.2	4.9	13	19.7	20.3	23.8	27.1	16.3	21.9
CC(=O)Nc1cccc(-n2c(=O)n(C3CC3)c(=O)c3c(Nc4ccc(I)cc4F)n(C)c(=O)c(C)c32)c1 [Trametinib]	0.6 nM	0.5 nM	0.8 nM	0.2 nM	1.3 nM	0.5 nM	1.8	21.2	18.1	26.1	17.9	21.1	6.8	15.6	22.3	23.3	27.6	34.6	17.1	24
CC(C)Nc1cc(-c2c[nH]c(C(=O)N[C@H](CO)c3cccc(Cl)c3)c2)c(Cl)cn1 [Ulixertinib]	127 nM	76 nM	279 nM	83.1 nM	236 nM	125 nM	4.2	12.6	15	17.1	9.7	13.3	4.1	7.6	16.5	19.4	17	25.2	8.1	15.3
FC(F)c1nc2ccccc2n1-c1nc(N2CCOCC2)nc(N2CCOCC2)n1 [ZSTK474]							7	9	10.8	7.2	4.6	12.2	7	8.7						
Cc1sc2c(c1C)C(c1ccc(Cl)cc1)=N[C@@H](CC(=O)NCCCCNC(=O)COc1cccc3c1C(=O)N(C1CCC(=O)NC1=O)C3=O)c1nnc(C)n1-2 (stereo partly specified) [dBET1]							9.1	10.3	3.5	7.1	0	3	0	4.6						
